Data taken from publication PMC3042041 (ACS chemical biology, 2010).

Biological target: T1, REV-ERBα (Homo sapiens, UniProt P20393)
T1 sequence (P20393 1-614): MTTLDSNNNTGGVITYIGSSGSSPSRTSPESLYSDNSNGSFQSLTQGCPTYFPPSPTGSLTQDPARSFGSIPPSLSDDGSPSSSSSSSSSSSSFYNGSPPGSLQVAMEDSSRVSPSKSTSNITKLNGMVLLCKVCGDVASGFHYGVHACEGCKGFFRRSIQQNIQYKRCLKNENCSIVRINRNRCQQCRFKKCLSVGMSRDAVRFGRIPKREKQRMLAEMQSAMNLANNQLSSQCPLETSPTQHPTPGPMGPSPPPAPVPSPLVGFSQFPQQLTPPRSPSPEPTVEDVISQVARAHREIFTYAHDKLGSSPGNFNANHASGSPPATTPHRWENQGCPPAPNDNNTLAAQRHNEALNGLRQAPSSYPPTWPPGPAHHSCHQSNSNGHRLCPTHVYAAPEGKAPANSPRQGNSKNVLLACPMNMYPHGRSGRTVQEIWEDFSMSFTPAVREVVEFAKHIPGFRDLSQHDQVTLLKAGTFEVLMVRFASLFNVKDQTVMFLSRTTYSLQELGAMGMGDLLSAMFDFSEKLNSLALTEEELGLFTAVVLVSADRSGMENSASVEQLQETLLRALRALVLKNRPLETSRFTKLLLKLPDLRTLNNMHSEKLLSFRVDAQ
Assay: Bmal1-luciferase / REV-ERBα cotransfection reporter assay in HEK293 cells
Type: cell-based

CC(C)(C)OC(=O)CN(Cc1ccc(Cl)cc1)Cc1ccc([N+](=O)[O-])s1 [GSK4112]
IC50: 2300 nM
